Tests used:
Assay type in all cases: physicochemical
[1] = Reducing power (DE, Somogyi-Nelson method)
Protocol: A reagent grade maltotetraose (purity 97.0% or higher), commercialized by Hayashibara Biochemical Laboratories Inc., Okayama, Japan, was prepared into 20% solution and admixed with two units/g-saccharide of non-reducing saccharide-forming enzyme, disclosed in Japanese Patent No. 44695/81, and followed enzymatic reaction at 46° C. for 48 hours, and the saccharide solution containing 79.8% of α-maltosyl α,α-trehalose, d.s.b., was obtained. After adjusting the pH to 6.0, the saccharide solution was admixed with 10 units/g-saccharide of β-amylase, commercialized by Nagase & Co., Ltd., Osaka, Japan, and followed enzymatic reaction at 50° C. for 48 hours to hydrolyze maltotetraose. After autoclaving at 120° C. for 10 minutes, the reaction mixture was cooled and filtrated. The resulting filtrate was subjected to a column chromatography using “XT-1016 (Na^+-form, degree of crosslinking 4%)”, a strong acid cation-exchanger resin commercialized by Rohm and Hass Japan K.K., Fukushima, Japan, and collected α-maltosyl α,α-trehalose high content fractions. The saccharide solution was purified, concentrated, and spray-dried to prepare an amorphous powdery α-maltosyl α,α-trehalose high content base for the powderization.

[2] = Hygroscopicity of the product
[3] = Solubility in water of the product

- reducibility [1]: no reducibility
- reducing power ([1]; Somogyi-Nelson method): less than the detection limit
- hygroscopicity [2]: low
- solubility in water [3]: satisfactory
SMILES: OC[C@H]1O[C@H](O[C@H]2O[C@H](CO)[C@@H](O[C@H]3O[C@H](CO)[C@@H](O[C@H]4O[C@H](CO)[C@@H](O)[C@H](O)[C@H]4O)[C@H](O)[C@H]3O)[C@H](O)[C@H]2O)[C@H](O)[C@@H](O)[C@@H]1O [Example A-5, α-maltosyl α,α-trehalose]

From patent US20060177553A1, “Method of powdering nonsugar component and powdering base” (priority 2003, published 2006)
